Among the data in patent publication US20080234262A1 (Wyeth, priority 2007, published 2008) are IC50 values, retold here.

Test [1] deals with breast line MDA468. Nature of the test: In vitro cell culture growth assay (MTS), MDA468. The test is classed as cell-based, human. Particulars: Homo sapiens, 72 h, MDA468 cells, three days after drug treatment. Put shortly:
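Cells were plated and, one day later, exposed to inhibitors for three days; viable cell density was then measured by metabolic conversion of MTS dye, read as absorbance at 490 nm. Growth is expressed as percent of vehicle-treated control cells on the same plate.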

Test [2] relates to prostate line LNCap. Nature of the test: In vitro cell culture growth assay (MTS), LNCap. The class given is cell-based, human. The settings on record: Homo sapiens, LNCaP, 72 h, LNCap cells, three days after drug treatment.
In test [3] the target is PI3K (Homo sapiens, UniProt P42336). Nature of the test: Fluorescence polarization assay for PI3K.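 Also: PI3K kinase reaction on PIP2 with ATP, 30-60 min, product sensed by GST-GRP with red probe in fluorescence polarization (mP), controls without enzyme and at zero time.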 The class given is biochemical. Particulars: PI3Kα; read-out: PI3Kα IC50. In general terms: Polarisation of emitted light reports the rotation of a fluorescent probe.
Sequence of PI3K (P42336 whole entry): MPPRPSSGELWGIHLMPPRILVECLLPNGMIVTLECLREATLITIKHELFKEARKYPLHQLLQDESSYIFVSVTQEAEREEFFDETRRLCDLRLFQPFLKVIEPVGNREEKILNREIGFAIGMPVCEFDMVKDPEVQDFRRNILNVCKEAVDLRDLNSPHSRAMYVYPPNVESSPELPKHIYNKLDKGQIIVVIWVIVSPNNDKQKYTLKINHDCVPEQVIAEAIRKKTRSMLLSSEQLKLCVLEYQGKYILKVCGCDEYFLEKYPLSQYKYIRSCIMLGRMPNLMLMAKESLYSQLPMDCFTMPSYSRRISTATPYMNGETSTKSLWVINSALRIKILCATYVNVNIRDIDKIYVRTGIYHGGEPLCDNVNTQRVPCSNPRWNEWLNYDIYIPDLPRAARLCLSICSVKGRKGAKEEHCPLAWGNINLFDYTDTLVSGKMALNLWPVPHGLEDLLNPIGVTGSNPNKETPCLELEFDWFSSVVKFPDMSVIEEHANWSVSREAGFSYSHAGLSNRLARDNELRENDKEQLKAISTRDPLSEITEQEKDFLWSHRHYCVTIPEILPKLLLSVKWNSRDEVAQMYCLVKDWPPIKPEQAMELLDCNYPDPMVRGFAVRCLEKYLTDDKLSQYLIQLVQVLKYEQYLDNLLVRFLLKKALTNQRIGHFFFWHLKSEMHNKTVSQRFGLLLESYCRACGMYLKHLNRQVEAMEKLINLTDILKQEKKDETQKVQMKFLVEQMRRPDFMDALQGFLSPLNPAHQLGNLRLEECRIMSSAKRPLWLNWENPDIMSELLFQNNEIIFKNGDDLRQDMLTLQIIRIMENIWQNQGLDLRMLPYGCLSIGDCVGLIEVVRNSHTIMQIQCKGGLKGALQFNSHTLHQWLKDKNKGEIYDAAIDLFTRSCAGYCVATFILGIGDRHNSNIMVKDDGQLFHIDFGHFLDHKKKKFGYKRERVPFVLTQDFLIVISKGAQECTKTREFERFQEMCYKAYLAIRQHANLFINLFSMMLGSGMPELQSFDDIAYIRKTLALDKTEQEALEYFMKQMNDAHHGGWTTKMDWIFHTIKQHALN
Sequence of PI3K (P27986 whole entry partner): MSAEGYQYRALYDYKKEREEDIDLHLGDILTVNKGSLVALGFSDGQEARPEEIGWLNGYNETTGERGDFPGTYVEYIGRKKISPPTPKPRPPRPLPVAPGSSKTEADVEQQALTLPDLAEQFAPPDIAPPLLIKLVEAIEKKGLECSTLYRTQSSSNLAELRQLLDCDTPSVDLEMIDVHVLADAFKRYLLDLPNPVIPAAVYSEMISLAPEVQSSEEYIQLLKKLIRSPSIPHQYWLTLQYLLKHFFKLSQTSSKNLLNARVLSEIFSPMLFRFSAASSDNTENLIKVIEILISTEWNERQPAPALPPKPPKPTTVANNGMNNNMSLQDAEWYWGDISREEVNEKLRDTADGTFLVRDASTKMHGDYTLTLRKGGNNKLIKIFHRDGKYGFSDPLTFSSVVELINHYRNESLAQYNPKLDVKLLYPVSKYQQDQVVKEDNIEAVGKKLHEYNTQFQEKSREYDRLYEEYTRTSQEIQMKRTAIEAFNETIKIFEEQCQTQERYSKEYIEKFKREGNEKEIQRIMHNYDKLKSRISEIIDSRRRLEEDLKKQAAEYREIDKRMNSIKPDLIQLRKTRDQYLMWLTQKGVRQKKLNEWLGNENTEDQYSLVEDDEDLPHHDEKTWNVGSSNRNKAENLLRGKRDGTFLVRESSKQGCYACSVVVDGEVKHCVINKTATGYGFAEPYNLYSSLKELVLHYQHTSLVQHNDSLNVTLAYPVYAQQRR

By IC50 is commonly meant the midpoint of a concentration-inhibition curve. In test [1], `COC(=O)N1CCC(n2ncc3c(N4CCOCC4)nc(-c4ccc(NC(=O)Nc5ccc(CCN6CCOCC6)cc5)cc4)nc32)CC1` [Compound 918, methyl 4-{4-morpholin-4-yl-6-[4-({[4-(2-morpholin-4-ylethyl)phenyl]carbamoyl}amino)phenyl]-1H-pyrazolo[3,4-d]pyrimidin-1-yl}piperidine-1-carboxylate] came in with an IC50 of 180 nM. Turning to `O=C(Nc1ccc(-c2nc(N3CCOCC3)c3cnn(C4CCN(Cc5cccnc5)CC4)c3n2)cc1)OCCO` [Compound 924, 2-hydroxyethyl (4-{4-morpholin-4-yl-1-[1-(pyridin-3-ylmethyl)piperidin-4-yl]-1H-pyrazolo[3,4-d]pyrimidin-6-yl}phenyl)carbamate], half-maximal inhibition in test [1] (IC50) was put at 110 nM. Still for that read-out and setting: in the case of `COC(=O)Nc1ccc(-c2nc(N3CCOCC3)c3cnn(C4CCN(Cc5ccccc5)CC4)c3n2)cc1` [Example 154, methyl {4-[1-(1-benzylpiperidin-4-yl)-4-morpholin-4-yl-1H-pyrazolo[3,4-d]pyrimidin-6-yl]phenyl}carbamate] it was 3000 nM; in that of `CNC(=O)Nc1ccc(-c2nc(N3CCOCC3)c3cnn(C4CCN(Cc5ccccc5)CC4)c3n2)cc1` [Example 206, N-{4-[1-(1-benzylpiperidin-4-yl)-4-morpholin-4-yl-1H-pyrazolo[3,4-d]pyrimidin-6-yl]phenyl}-N′-methylurea], 100 nM. With `COC(=O)Nc1ccc(-c2nc(N3CCOCC3)c3cnn(C4CCN(Cc5cccnc5)CC4)c3n2)cc1` [Example 209, methyl (4-{4-morpholin-4-yl-1-[1-(pyridin-3-ylmethyl)piperidin-4-yl]-1H-pyrazolo[3,4-d]pyrimidin-6-yl}phenyl)carbamate], the IC50 in test [1] amounted to 1500 nM. Consider `CCNC(=O)Nc1ccc(-c2nc(N3CCOCC3)c3cnn(C4CCN(Cc5ccccc5)CC4)c3n2)cc1` [Example 253, 1-{4-[1-(1-benzylpiperidin-4-yl)-4-morpholin-4-yl-1H-pyrazolo[3,4-d]pyrimidin-6-yl]phenyl}-3-ethylurea], for which the IC50 in test [1] was 400 nM.

The compound `O=C(Nc1ccccc1)Nc1ccc(-c2nc(N3CCOCC3)c3cnn(C4CCN(Cc5ccccc5)CC4)c3n2)cc1` [Example 257, 1-{4-[1-(1-benzylpiperidin-4-yl)-4-morpholin-4-yl-1H-pyrazolo[3,4-d]pyrimidin-6-yl]phenyl}-3-phenylurea] had an IC50 in test [1] of 1100 nM. In test [1], `O=C(NCCO)Nc1ccc(-c2nc(N3CCOCC3)c3cnn(C4CCN(Cc5ccccc5)CC4)c3n2)cc1` [Example 265, 1-{4-[1-(1-benzylpiperidin-4-yl)-4-morpholin-4-yl-1H-pyrazolo[3,4-d]pyrimidin-6-yl]phenyl}-3-(2-hydroxyethyl)urea] had an IC50 of 100 nM. Consider `O=C(Nc1ccc(-c2nc(N3CCOCC3)c3cnn(C4CCN(C(=O)c5cccnc5)CC4)c3n2)cc1)Nc1cccnc1` [Example 302, 1-(4-{4-morpholin-4-yl-1-[1-(pyridin-3-ylcarbonyl)piperidin-4-yl]-1H-pyrazolo[3,4-d]pyrimidin-6-yl}phenyl)-3-pyridin-3-ylurea], for which the IC50 in test [2] stood at 200 nM; in test [3], 32 nM. The compound `O=C(Nc1ccc(-c2nc(N3CCOCC3)c3cnn(C4CCN(Cc5ccccc5)CC4)c3n2)cc1)NC1CC1` [Example 311, 1-{4-[1-(1-benzylpiperidin-4-yl)-4-morpholin-4-yl-1H-pyrazolo[3,4-d]pyrimidin-6-yl]phenyl}-3-cyclopropylurea] came in with an IC50 in test [1] of 1100 nM. With `O=C(Nc1ccc(-c2nc(N3CCOCC3)c3cnn(C4CCN(Cc5cccnc5)CC4)c3n2)cc1)Nc1cccnc1` [Example 314, 1-(4-{4-morpholin-4-yl-1-[1-(pyridin-3-ylmethyl)piperidin-4-yl]-1H-pyrazolo[3,4-d]pyrimidin-6-yl}phenyl)-3-pyridin-3-ylurea], the results for the IC50 in test [2] and in test [3] were 27 nM and 20 nM, respectively. The corresponding values for `O=C(NCCF)Nc1ccc(-c2nc(N3CCOCC3)c3cnn(C4CCN(Cc5cccnc5)CC4)c3n2)cc1` [Example 315, 1-(2-fluoroethyl)-3-(4-{4-morpholin-4-yl-1-[1-(pyridin-3-ylmethyl)piperidin-4-yl]-1H-pyrazolo[3,4-d]pyrimidin-6-yl}phenyl)urea] are 27 nM and 338 nM. On the same counts, the results for `CCNC(=O)Nc1ccc(-c2nc(N3CCOCC3)c3cnn(C4CCN(Cc5cccnc5)CC4)c3n2)cc1` [Example 318, 1-ethyl-3-(4-{4-morpholin-4-yl-1-[1-(pyridin-3-ylmethyl)piperidin-4-yl]-1H-pyrazolo[3,4-d]pyrimidin-6-yl}phenyl)urea] are 27 nM and 187 nM. `O=C(Nc1ccc(-c2nc(N3CCOCC3)c3cnn(C4CCN(Cc5ccccc5)CC4)c3n2)cc1)Nc1ncc[nH]1` [Example 326, 1-{4-[1-(1-benzylpiperidin-4-yl)-4-morpholin-4-yl-1H-pyrazolo[3,4-d]pyrimidin-6-yl]phenyl}-3-(1H-imidazol-2-yl)urea] displayed an IC50 in test [1] of 3500 nM. With `CNC(=O)Nc1ccc(-c2nc(N3CCOCC3)c3cnn(C4CCN(C(=O)c5ccccc5)CC4)c3n2)cc1` [Example 336, 1-{4-[1-(1-benzoylpiperidin-4-yl)-4-morpholin-4-yl-1H-pyrazolo[3,4-d]pyrimidin-6-yl]phenyl}-3-methylurea], the IC50 worked out at 27 nM in test [2] and 70 nM in test [3]. As to `CNC(=O)Nc1ccc(-c2nc(N3CCOCC3)c3cnn(C4CCN(C(=O)OC(C)(C)C)CC4)c3n2)cc1` [Example 337, tert-butyl 4-(6-{4-[(methylcarbamoyl)amino]phenyl}-4-morpholin-4-yl-1H-pyrazolo[3,4-d]pyrimidin-1-yl)piperidine-1-carboxylate], in test [1], the IC50 was 300 nM. For `O=C(Nc1ccncc1)Nc1ccc(-c2nc(N3CCOCC3)c3cnn(C4CCN(C(=O)c5cccnc5)CC4)c3n2)cc1` [Example 344, 1-(4-{4-morpholin-4-yl-1-[1-(pyridin-3-ylcarbonyl)piperidin-4-yl]-1H-pyrazolo[3,4-d]pyrimidin-6-yl}phenyl)-3-pyridin-4-ylurea], the IC50 in test [2] stood at 27 nM; in test [3], 15 nM. The corresponding values for `CNC(=O)Nc1ccc(-c2nc(N3CCOCC3)c3cnn(C4CCN(C(=O)c5ccccc5Cl)CC4)c3n2)cc1` [Example 355, 1-(4-{1-[1-(2-chlorobenzoyl)piperidin-4-yl]-4-morpholin-4-yl-1H-pyrazolo[3,4-d]pyrimidin-6-yl}phenyl)-3-methylurea] are 27 nM and 79 nM.

On to `CNC(=O)Nc1ccc(-c2nc(N3CCOCC3)c3cnn(C4CCN(C(=O)c5cccc(C)c5)CC4)c3n2)cc1` [Example 366, 1-methyl-3-(4-{1-[1-(3-methylbenzoyl)piperidin-4-yl]-4-morpholin-4-yl-1H-pyrazolo[3,4-d]pyrimidin-6-yl}phenyl)urea], for which the values for the IC50 in test [2] and in test [3] were 27 nM and 73 nM, respectively. `CNC(=O)Nc1ccc(-c2nc(N3CCOCC3)c3cnn(C4CCN(C(=O)OC)CC4)c3n2)cc1` [Example 476, methyl 4-(6-{4-[(methylcarbamoyl)amino]phenyl}-4-morpholin-4-yl-1H-pyrazolo[3,4-d]pyrimidin-1-yl)piperidine-1-carboxylate] yielded an IC50 in test [1] of 100 nM.
